From patent publication US20220389000A1, “PESTICIDALLY ACTIVE CYCLIC AMINE COMPOUNDS” (SYNGENTA CROP PROTECTION AG, priority 2019, published 2022)

Legend:
[1] = tested on: Plutella xylostella (Diamond Back Moth); assay: Example B3: Plutella xylostella (diamond back moth), treated artificial diet, eggs; type: in vivo; conditions: 192 h, application rate 200 ppm, eggs on treated artificial diet, 8 days after infestation, vs untreated, read-out: effect in at least one of the two categories (mortality or growth inhibition)
Description: Example B3: Plutella xylostella (Diamond Back Moth)
24-well microtiter plates with artificial diet were treated with aqueous test solutions prepared from 10'000 ppm DMSO stock solutions by pipetting. After drying, Plutella eggs were pipetted through a plastic stencil onto a gel blotting paper and the plate was closed with it. The samples were assessed for mortality and growth inhibition in comparison to untreated samples 8 days after infestation.
The following compounds gave an effect of at least 80% in at least one of the two categories (mortality or growth inhibition) at an application rate of 200 ppm: […]

[2] = tested on: Tetranychus urticae (Two-Spotted Spider Mite); assay: Example B4: Tetranychus urticae (two-spotted spider mite), feeding/contact activity, sprayed bean leaf discs; type: in vivo; conditions: foliar, 192 h, application rate 200 ppm, mixed population (mobile stages) on sprayed bean leaf discs, 8 days after infestation
Description: Example B4: Tetranychus urticae (Two-Spotted Spider Mite): Feeding/Contact Activity
Bean leaf discs on agar in 24-well microtiter plates were sprayed with aqueous test solutions prepared from 10'000 ppm DMSO stock solutions. After drying the leaf discs were infested with a mite population of mixed ages. The samples were assessed for mortality on mixed population (mobile stages) 8 days after infestation.

SMILES | effect (mortality or growth inhibition) at 200 ppm [1] [%] | mortality at 200 ppm [2] [%]
Cc1nc(C2CCN(C(=O)c3cc(C#N)c(OCC4CC4(Cl)Cl)nc3C(F)(F)F)CC2)no1 (stereo not drawn) [P4.1, 2-[(2,2-Dichlorocyclopropyl)methoxy]-5-[4-(5-methyl-1,2,4-oxadiazol-3-yl)piperidine-1-carbonyl]-6-(trifluoromethyl)pyridine-3-carbonitrile] | ≥ 80 | ≥ 80
Cc1nc(C2CCN(C(=O)c3cc(C#N)c(OCc4ccc(C(F)(F)F)cc4)nc3C(F)(F)F)CC2)no1 [P1.1, 5-[4-(5-Methyl-1,2,4-oxadiazol-3-yl)piperidine-1-carbonyl]-6-(trifluoromethyl)-2-[[4-(trifluoromethyl)phenyl]methoxy]pyridine-3-carbonitrile] | – | ≥ 80
N#Cc1cc(C(=O)N2CCN(c3ncc(Cl)cc3Cl)CC2)c(C(F)(F)F)nc1OCc1ccc(C(F)(F)F)cc1 [P2.1, 5-[4-(3,5-dichloro-2-pyridyl)piperazine-1-carbonyl]-6-(trifluoromethyl)-2-[[4-(trifluoromethyl)phenyl]methoxy]pyridine-3-carbonitrile] | ≥ 80 | ≥ 80
CC[S+]([O-])CC1CCN(C(=O)c2cc(C#N)c(OCc3ccc(C(F)(F)F)cc3)nc2C(F)(F)F)CC1 (stereo not drawn) [P3.4, 5-[4-(Ethylsulfinylmethyl)piperidine-1-carbonyl]-6-(trifluoromethyl)-2-[[4-(trifluoromethyl)phenyl]methoxy]pyridine-3-carbonitrile] | – | ≥ 80
Cc1nc(C2CCN(C(=O)c3cc(C#N)c(OCc4ccc(C(F)(F)F)cc4)nc3C(F)F)CC2)no1 [P1.48, 6-(Difluoromethyl)-5-[4-(5-methyl-1,2,4-oxadiazol-3-yl)piperidine-1-carbonyl]-2-[[4-(trifluoromethyl)phenyl]methoxy]pyridine-3-carbonitrile] | – | ≥ 80
Cc1nc(C2CCN(C(=O)c3cc(C(N)=S)c(OCc4ccc(C(F)(F)F)cc4)nc3C(F)(F)F)CC2)no1 [P6.1, 5-[4-(5-Methyl-1,2,4-oxadiazol-3-yl)piperidine-1-carbonyl]-6-(trifluoromethyl)-2-[[4-(trifluoromethyl)phenyl]methoxy]pyridine-3-carbothioamide] | – | ≥ 80
Cc1nc(C2CCN(C(=O)c3cc(C#N)c(OCc4ccc(C(F)(F)F)cc4)nc3C)CC2)no1 [P1.43, 6-Methyl-5-[4-(5-methyl-1,2,4-oxadiazol-3-yl)piperidine-1-carbonyl]-2-[[4-(trifluoromethyl)phenyl]methoxy]pyridine-3-carbonitrile] | – | ≥ 80
